Read-outs that look alike come from different tables or passages of the source.
What was measured:
[1] = pure lipid; cited from earlier work
[2] = test system: HT29; experiment: In vitro cytotoxicity, HT29; type: cell-based, human
Method: A number of commercially available and privately-acquired tumor cell lines were initially surveyed for their sensitivity to various platinum agents, including oxaliplatin. […] The cell lines were also surveyed for sensitivity to 5FU.
Two studies of the novel liposome formulation containing oxaliplatin were conducted in this tumor model.

[3] = test system: human colon tumor cell lines; experiment: In vitro cytotoxicity survey, panel of human colon tumor cell lines; type: cell-based; conditions: HT-29, all cell lines tested except HT29, 72 h
Method: (§1) A number of commercially available and privately-acquired tumor cell lines were initially surveyed for their sensitivity to various platinum agents, including oxaliplatin. […] The cell lines were also surveyed for sensitivity to 5FU. […] Additionally, literature survey was conducted in search of in vitro-generated oxaliplatin-resistant colorectal cell lines to potentially include pre-clinical pharmacology studies in an effort to show improved sensitivity of these cells to a liposomal vs. free oxaliplatin treatment. From this survey, […] other oxaliplatin-resistant colorectal tumor lines were identified; HT29 (Plascencia et al., 2006; Yang et al., 2006), and DLD-1 (Kashiwagi et al., 2011).

[4] = test system: KB (epidermoid oral carcinoma human tumor) cells; experiment: In vitro cytotoxicity, KB cells
Method: (§2) Prior to initiation of this study, oxaliplatin was evaluated for drug tolerance in non-tumor bearing immunodeficient mice.

[5] = test system: HCT-116 cells; experiment: In vitro cytotoxicity survey, HCT-116; type: cell-based, human; conditions: 72 h
Method: as §1

[6] = Drug tolerance in non-tumor bearing immunodeficient mice; type: in vivo
Method: as §2

[7] = test system: KB xenograft tumors; experiment: Single-dose efficacy in mice bearing KB xenografts; type: in vivo, nude mice; conditions: 15 mg/kg
Excerpt: One-way ANOVA followed by Neuman-Keuls post hoc test.

CCCCCCCC/C=C\CCCCCCCC(=O)O[C@H](COC(=O)CCCCCCCCCCCCCCC)COP(=O)([O-])OCC[N+](C)(C)C [POPC, 1-palmitoyl-2-oleoyl-sn-glycero-3-phosphocholine]
gel-liquid crystalline thermal transition temperature [1]: around −2 °C

O=c1[nH]cc(F)c(=O)[nH]1 [Sample 5FU, 5-fluorouracil]
IC50 ([2]; Homo sapiens, HT-29, HT29, 72 h): > 50 µM | IC50 [3]: 7 to 10 µM

N.N.[Cl][Pt][Cl] [cisplatin]
IC50 ([4]; read-out: sensitivity (IC50), KB cell-line): 4 µM

O=C1[O][Pt]2([NH][C@@H]3CCCC[C@H]3[NH]2)[O]C1=O [oxaliplatin, [(1R,2R)-cyclohexane-1,2-diamine](ethanedioato-O,O′)platinum(II)]
IC50 [5]: 0.4 µM | IC50 ([4]; KB cell-line, 72 h): 5.4 µM | IC50 ([4]; KB cells, cytotoxicity testing prior to injection): 5.3 µM | IC50 ([2]; HT29 and several other cell lines, 72 h): 5 to 10 µM | IC50 ([2]; HT29 cell line used in the present studies): 5.4 µM | drug tolerance (in words) ([6]; doses above 15 mg/kg (i.e., 20 mg/kg)): dehydration and unacceptable gross body weight losses | maximum tolerated dose (MTD) ([6]; mice): 15 mg/kg | tumor growth and survival compared to saline control (in words) [7]: did not significantly inhibit tumor growth or increase survival | Median Survival ([7]; KB xenografts): 25.5 | TGI ([7]; KB xenografts): 0%

Reference: patent US20140271820A1, “LIPOSOME OXALIPLATIN COMPOSITIONS FOR CANCER THERAPY” (priority 2013, published 2014)
